# Experimental data as given in article PMC10813393 (Biomolecules, 2023).
# How the values were obtained:
# in vitro = type: cell-based; settings: African green monkey; VERO cells, 72 h exposure, CCK-8; read-out: Cytotoxicity (CC50)
# Experimental: A CCK-8 assay (ab228554; Abcam, Cambridge, UK) was performed to evaluate the cytotoxicity of pure compounds. WST-8/CCK8 tetrazolium salt is reduced by cellular dehydrogenases to form an orange formazan product that is soluble in a tissue culture medium. The formazan produced is directly proportional to the number of living and metabolically active cells and is measured via absorbance at 460 nm. Therefore, VERO cells (2 × 10^4 cells/mL) were grown in 96-well microtiter plates at 37 °C in a 5% CO2 incubator for 24 h. Then, they were exposed to serial dilutions of L7OG CY, FA, and RA for 72 h and incubated with CCK8 tetrazolium salt for 4 h at 37 °C in a CO2 incubator. The absorbance was measured at 460 nm using a GloMax® Discover Microplate Reader (Promega, Madison, WI, USA), and the percentage of cellular viability was calculated and compared to untreated cells.
# Commercially available cynarin (CY), rosmarinic acid (RA), folic acid (FA), and luteolin-7-O-glucuronide (L7OG) were used to prepare the respective stock solutions.
# Specifically, L7OG was dissolved in DMSO to obtain a 5.5 mM solution, RA was dissolved in water to obtain an 8.0 mM solution, CY was dissolved in methanol to obtain a 4.7 mM solution, and FA was dissolved in ethanol to obtain an 8.7 mM solution.
# Viability assay of natural compounds
# VERO cells were exposed to different concentrations of L7OG, CY, FA, and RA for 72 h and incubated with CCK8 tetrazolium salt for 4 h before measuring the absorbance values in a microplate reader. The percentage of cellular viability was calculated and compared to untreated cells.
# Figure S1. Cellular viability assay following treatment with different L7OG, CY, FA, and RA concentrations. VERO cells were incubated for […] with various concentrations of natural compounds, as reported in the material and methods section. Results represent the mean of three biologically independent experiments ± SD.
# Table S1. Cytotoxicity (CC50) values (μM) of natural compounds on VERO cells.
# (1 picture or pasted object on this page, not shown here)
# [1] = molecular target: recombinant SARS-CoV-2 3CL^pro (Severe acute respiratory syndrome coronavirus 2, UniProt P0DTD1); test: biochemical; type: biochemical; settings: for inhibition of the enzymatic activity of 3CL^pro (in words): judged from IC50 values; for IC50: luminogenic substrate, 60 min, read-out: IC50 for inhibiting SARS-CoV-2 3CL^pro
# [2] = molecular target: recombinant SARS-CoV-2 PL^pro (GST-PL^pro) (Severe acute respiratory syndrome coronavirus 2, UniProt P0DTD1); test: SARS-CoV-2 PLpro luminescent assay; type: biochemical; settings: for inhibition of PL^pro (in words): judged from IC50 values; for IC50: luminogenic substrate, 60 min, read-out: IC50 for inhibiting SARS-CoV-2 PL^pro
# SARS-CoV-2 M^pro = settings: cited from earlier work
Structure (SMILES),CC50 at 72 h (in vitro),inhibition of the enzymatic activity of 3CL^pro (in words) [1],IC50 [1],inhibition of PL^pro (in words) [2],IC50 [2],IC50 (SARS-CoV-2 M^pro)
"O=C(/C=C/c1ccc(O)c(O)c1)O[C@@H]1C[C@@](OC(=O)/C=C/c2ccc(O)c(O)c2)(C(=O)O)C[C@@H](O)[C@@H]1O [CY, 1,3-dicaffeoylquinic acid]",91.5 µM,no enzymatic inhibition,> 300 µM,–,–,–
"O=C(O)[C@H]1O[C@@H](Oc2cc(O)c3c(=O)cc(-c4ccc(O)c(O)c4)oc3c2)[C@H](O)[C@@H](O)[C@@H]1O [Compound L7OG, luteolin-7-O-glucuronide]",55.7 µM,moderate inhibition,170 µM,moderately inhibit,153 µM,–
"Nc1nc(=O)c2nc(CNc3ccc(C(=O)N[C@@H](CCC(=O)O)C(=O)O)cc3)cnc2[nH]1 [FA, folic acid, reference compound]",107 µM,moderate inhibition,232 µM,moderately inhibit,183 µM,–
"O=C(/C=C/c1ccc(O)c(O)c1)O[C@H](Cc1ccc(O)c(O)c1)C(=O)O [RA, rosmarinic acid]",78.3 µM,no enzymatic inhibition,> 300 µM,–,> 300 µM,6.84 µM
